From patent publication US20170050980A1, “OXADIAZINE COMPOUNDS AND METHODS OF USE THEREOF” (FORUM Pharmaceuticals Inc., priority 2015, published 2017)

system: Aβ42; experiment: In vitro cell screening assay; quantification of Aβ (1-42) peptide by sandwich ELISA; format: cell-based; settings: Human neuroglioma H4 cells stably expressing human wild type APP751; compounds 0.003-10 μM, incubated overnight (16-18 h); Aβ42 in supernatant by sandwich ELISA; normalized to DMSO and DAPT; read-out: Aβ42 H4 Prot Fre IC50
Experimental: Human neuroglioma H4 cells were transfected with a pcDNA3.1 plasmid expressing human wild type APP751 cDNA and a stable cell line was generated using G418 selection. Cells were plated at 15,000 cells/well in Costar 96-well plates and placed at 37° C. and 5% CO2. Six hours after plating, cells were washed three times with Pro293™ chemically defined medium, followed by addition of compounds (0.003-10 μM, final DMSO concentration of 0.33%). Plates were incubated overnight (16-18 h) and supernatant was removed for quantification of Aβ peptides by sandwich ELISA. Cytotoxicity was evaluated using Cell-Titer 96W AQueous One Solution Cell Proliferation Assay according to the manufacturer's protocol.
Aβ peptide levels were quantified by sandwich ELISA. 96-well plates were coated with C-terminal specific Aβ antibodies recognizing either Aβ37, Aβ38, Aβ40, Aβ42, Aβ43 or a N-terminal specific Aβ antibody to detect Aβ 1-x. Plates were then blocked overnight at 4° C. with 1% bovine serum albumin (BSA) in PBS-T. Plates were washed and 100 μl of cultured cell supernatant or synthetic Aβ peptide standards and a detection antibody (4G8-HRP) were applied to the blocked plate and incubated overnight at 4° C. The next day, wells were washed before the addition of detection substrate (TMB peroxidase). Plates were then read for absorbance at 450 nm on a Molecular Devices SpectraMax M5e Microplate Reader.
Compound-treated samples were normalized to samples treated with DMSO alone (no inhibition) and to samples treated with DAPT. IC50 values were calculated from values reported as percent of DMSO controls using nonlinear regression, based on a sigmoidal dose—response (variable slope) model. […] used for calculation.

Compound | IC50
COc1nc(C2=NOC(C)C(c3cn(C)c4ncc(C(F)(F)F)cc34)N2)ccc1-n1cnc(C)c1 (single isomer, unassigned; (-)) [44C or 45C, (−)-3-(6-methoxy-5-(4-methyl-1H-imidazol-1-yl)pyridin-2-yl)-6-methyl-5-(1-methyl-5-(trifluoromethyl)-1H-pyrrolo[2,3-b]pyridin-3-yl)-5,6-dihydro-4H-1,2,4-oxadiazine] | ~1.38 µM
COc1nc(C2=NOC(C)C(c3cn(C)c4cc(F)c(Cl)cc34)N2)ccc1-n1cnc(C)c1 (single isomer, unassigned; (-)) [Example 21A, (−)-5-(5-chloro-6-fluoro-1-methyl-1H-indol-3-yl)-3-(6-methoxy-5-(4-methyl-1H-imidazol-1-yl)pyridin-2-yl)-6-methyl-5,6-dihydro-4H-1,2,4-oxadiazine] | 0.065 µM
COc1nc(C2=NOC(C)C(c3cn(C)c4cc(F)c(Cl)cc34)N2)ccc1-n1cnc(C)c1 (single isomer, unassigned; (-)) [Example 21C, (−)-5-(5-chloro-6-fluoro-1-methyl-1H-indol-3-yl)-3-(6-methoxy-5-(4-methyl-1H-imidazol-1-yl)pyridin-2-yl)-6-methyl-5,6-dihydro-4H-1,2,4-oxadiazine] | 0.37 µM
COc1nc(C2=NOC(C)(C)C(c3ccccc3)N2)ccc1-n1cnc(C)c1 (single isomer, unassigned; (-)) [Example 22A, (−)-3-[6-methoxy-5-(4-methyl-1H-imidazol-1-yl)pyridin-2-yl]-6,6-dimethyl-5-phenyl-5,6-dihydro-4H-1,2,4-oxadiazine] | > 3 µM
COc1nc(C2=NOC(C)(C)C(c3ccc(Cl)cc3)N2)ccc1-n1cnc(C)c1 (single isomer, unassigned; (-)) [Example 23A, (−)-5-(4-chlorophenyl)-3-[6-methoxy-5-(4-methyl-1H-imidazol-1-yl)pyridin-2-yl]-6,6-dimethyl-5,6-dihydro-4H-1,2,4-oxadiazine] | 1.14 µM
COc1nc(C2=NOC3(CC3)C(c3ccc(Cl)cc3)N2)ccc1-n1cnc(C)c1 (single isomer, unassigned; (-)) [Example 25A, (−)-8-(4-chlorophenyl)-6-[6-methoxy-5-(4-methyl-1H-imidazol-1-yl)pyridin-2-yl]-4-oxa-5,7-diazaspiro[2.5]oct-5-ene] | 2.6 µM
COc1nc(C2=NOCC(C)(c3cn(C)c4ccccc34)N2)ccc1-n1cnc(C)c1 (single isomer, unassigned; (-)) [Example 26B, (−)-3-[3-[6-methoxy-5-(4-methyl-1H-imidazol-1-yl)pyridin-2-yl]-5-methyl-5,6-dihydro-4H-1,2,4-oxadiazin-5-yl]-1-methyl-1H-indole] | 0.31 µM
COc1nc(C2=NOCC(c3c4n(c5ccc(Cl)cc35)CCOC4)N2)ccc1-n1cnc(C)c1 (single isomer, unassigned; (-)) [Example 28B, (−)-8-chloro-10-(3-(6-methoxy-5-(4-methyl-1H-imidazol-1-yl)pyridin-2-yl)-5,6-dihydro-4H-1,2,4-oxadiazin-5-yl)-3,4-dihydro-1H-[1,4]oxazino[4,3-a]indole] | 0.0618 µM
COc1nc(C2=NOCC(c3cn(C)c4ccc(C5CCOCC5)cc34)N2)ccc1-n1cnc(C)c1 (single isomer, unassigned; (-)) [Example 29A, (−)-3-(6-methoxy-5-(4-methyl-1H-imidazol-1-yl)pyridin-2-yl)-5-(1-methyl-5-(tetrahydro-2H-pyran-4-yl)-1H-indol-3-yl)-5,6-dihydro-4H-1,2,4-oxadiazine] | 0.663 µM
COc1nc(C2=NOCC(c3c4n(c5ccccc35)CCOC4)N2)ccc1-n1cnc(C)c1 (single isomer, unassigned; (-)) [Example 30A, (−)-10-(3-(6-methoxy-5-(4-methyl-1H-imidazol-1-yl)pyridin-2-yl)-5,6-dihydro-4H-1,2,4-oxadiazin-5-yl)-3 ,4-dihydro-1H-[1,4]oxazino[4,3-a]indole] | 0.323 µM
COc1nc(C2=NOC(C)C(c3cn(C)c4cc(F)c(F)cc34)N2)ccc1-n1cnc(C)c1 (single isomer, unassigned; (-)) [Example 39B, (−)-5-(5,6-difluoro-1-methyl-1H-indol-3-yl)-3-(6-methoxy-5-(4-methyl-1H-imidazol-1-yl)pyridin-2-yl)-6-methyl-5,6-dihydro-4H-1,2,4-oxadiazine] | 0.0704 µM
COc1nc(C2=NOC(C)C(c3cn(C)c4cc(F)c(F)cc34)N2)ccc1-n1cnc(C)c1 (single isomer, unassigned; (-)) [Example 39C, (−)-5-(5,6-difluoro-1-methyl-1H-indol-3-yl)-3-(6-methoxy-5-(4-methyl-1H-imidazol-1-yl)pyridin-2-yl)-6-methyl-5,6-dihydro-4H-1,2,4-oxadiazine] | 0.729 µM
COc1nc(C2=NOC(C)C(c3ccc(Cl)cc3)N2)ccc1-n1cnc(Cl)c1 (single isomer, unassigned; (-)) [Example 42A, (−)-3-(5-(4-chloro-1H-imidazol-1-yl)-6-methoxypyridin-2-yl)-5-(4-chlorophenyl)-6-methyl-5,6-dihydro-4H-1,2,4-oxadiazine] | > 3 µM
COc1cc(C2=NOC(C)C(c3ccc(Cl)cc3)N2)ccc1-n1cnc(C)c1 (single isomer, unassigned; (-)) [Example 43A, (−)-5-(4-chlorophenyl)-3-(3-methoxy-4-(4-methyl-1H-imidazol-1-yl)phenyl)-6-methyl-5,6-dihydro-4H-1,2,4-oxadiazine] | > 3 µM
COc1nc(C2=NOC(C)C(c3cccc(Cl)c3)N2)ccc1-n1cnc(Cl)c1 (single isomer, unassigned; (-)) [Example 47A, (−)-3-(5-(4-chloro-1H-imidazol-1-yl)-6-methoxypyridin-2-yl)-5-(3-chlorophenyl)-6-methyl-5,6-dihydro-4H-1,2,4-oxadiazine] | > 3 µM
COc1nc(C2=NOC(C)C(c3ccc(Cl)cc3)N2)ccc1-c1ccnc(C)c1 (single isomer, unassigned; (-)) [Example 48A, (−)-5-(4-chlorophenyl)-3-(2-methoxy-2′-methyl-[3,4′-bipyridin]-6-yl)-6-methyl-5,6-dihydro-4H-1,2,4-oxadiazine] | 0.438 µM
COc1nc(C2=NOC(C)C(c3cccc(Cl)c3)N2)ccc1-c1ccnc(C)c1 (single isomer, unassigned; (-)) [Example 49A, (−)-5-(3-chlorophenyl)-3-(2-methoxy-2′-methyl-[3,4′-bipyridin]-6-yl)-6-methyl-5,6-dihydro-4H-1,2,4-oxadiazine] | 0.547 µM
COc1nc(C2=NOC(C)C(c3c4n(c5ccc(Cl)cc35)CCOC4)N2)ccc1-n1cnc(C)c1 (single isomer, unassigned; (-)) [Example 50B, (−)-8-chloro-10-(3-(6-methoxy-5-(4-methyl-1H-imidazol-1-yl)pyridin-2-yl)-6-methyl-5,6-dihydro-4H-1,2,4-oxadiazin-5-yl)-3,4-dihydro-1H-[1,4] oxazino [4,3-a] indole] | 0.027 µM
COc1nc(C2=NOC(C)C(c3c4n(c5ccc(Cl)cc35)CCOC4)N2)ccc1-n1cnc(C)c1 (single isomer, unassigned; (-)) [Example 50C, (−)-8-chloro-10-(3-(6-methoxy-5-(4-methyl-1H-imidazol-1-yl)pyridin-2-yl)-6-methyl-5,6-dihydro-4H-1,2,4-oxadiazin-5-yl)-3,4-dihydro-1H-[1,4] oxazino [4,3-a] indole] | 0.352 µM
COc1nc(C2=NOC(C)C(c3cn(C)c4ncc(F)c(F)c34)N2)ccc1-n1cnc(C)c1 (single isomer, unassigned; (-)) [Example 51B, (−)-5-(4,5-difluoro-1-methyl-1H-pyrrolo [2,3-b]pyridin-3-yl)-3-(6-methoxy-5-(4-methyl-1H-imidazol-1-yl)pyridin-2-yl)-6-methyl-5,6-dihydro-4H-1,2,4-oxadiazine] | 0.218 µM
COc1nc(C2=NOC(C)C(c3cn(C)c4ccc(F)c(F)c34)N2)ccc1-n1cnc(C)c1 (single isomer, unassigned; (-)) [Example 52A, (−)-5-(4,5-difluoro-1-methyl-1H-indol-3-yl)-3-(6-methoxy-5-(4-methyl-1H-imidazol-1-yl)pyridin-2-yl)-6-methyl-5,6-dihydro-4H-1,2,4-oxadiazine] | 0.084 µM
COc1nc(C2=NOC(C)C(c3cn(C)c4ccc(F)c(F)c34)N2)ccc1-n1cnc(C)c1 (single isomer, unassigned; (-)) [Example 52D, (−)-5-(4,5-difluoro-1-methyl-1H-indol-3-yl)-3-(6-methoxy-5-(4-methyl-1H-imidazol-1-yl)pyridin-2-yl)-6-methyl-5,6-dihydro-4H-1,2,4-oxadiazine] | 0.401 µM
COc1nc(C2=NOC(C)C(c3cccc(Cl)c3)N2)ccc1-n1cnc(C)n1 (single isomer, unassigned; (-)) [Example 53A, (−)-5-(3-chlorophenyl)-3-(6-methoxy-5-(3-methyl-1H-1,2,4-triazol-1-yl)pyridin-2-yl)-6-methyl-5,6-dihydro-4H-1,2,4-oxadiazine] | > 3 µM
